From ChEMBL document CHEMBL1201862, “PubChem BioAssay data set” (2004)
Activity calls are given as the source filed them.

Experiments:
[1] = target: Luciferin 4-monooxygenase (Photinus pyralis, UniProt P08659); test: inhibition of purified Photinus pyralis luciferase – biochemical, luminescence, dose response (AID 1891)
[2] = Luminescence Cell-Based Dose Confirmation HTS to Identify Inhibitors of Platelet Dense Granule Release. [Related pubchem assays: 1663 (Primary HTS), 1678 (Summary of Project)]; type: functional
[3] = blockers of CAL PDZ–TMR peptide complex – biochemical, fluorescence polarization, untagged CAL PDZ, cherry-pick, set 2, dose response (AID 602254); type: functional
[4] = target: 26S proteasome non-ATPase regulatory subunit 14 (Homo sapiens, UniProt O00487); test: inhibition of proteasome subunit RPN11 – biochemical, fluorescence polarization, uHTS hits, confirmation (AID 602368); type: functional
Melanocortin receptor 4 [5] = target: T1, Melanocortin receptor 4 (Homo sapiens, UniProt P32245); test: inhibitors of MC4R cAMP signaling – cell-based, TR-FRET, biased antagonists, dose response (AID 602298); type: functional;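 note: antagonist potency against agonist-stimulated cAMP production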
[6] = target: Heat shock protein HSP 90-alpha (Homo sapiens, UniProt P07900); type: functional, organism-based
[7] = target: T2, Rac GTPase-activating protein 1 (Homo sapiens, UniProt Q9H0H5); test: blockers of MgcRacGAP-driven Rac1 GTP hydrolysis – biochemical, ADP Hunter fluorescence, primary and confirmatory, confirmation (AID 624330); type: functional
T2 sequence (Q9H0H5 whole entry): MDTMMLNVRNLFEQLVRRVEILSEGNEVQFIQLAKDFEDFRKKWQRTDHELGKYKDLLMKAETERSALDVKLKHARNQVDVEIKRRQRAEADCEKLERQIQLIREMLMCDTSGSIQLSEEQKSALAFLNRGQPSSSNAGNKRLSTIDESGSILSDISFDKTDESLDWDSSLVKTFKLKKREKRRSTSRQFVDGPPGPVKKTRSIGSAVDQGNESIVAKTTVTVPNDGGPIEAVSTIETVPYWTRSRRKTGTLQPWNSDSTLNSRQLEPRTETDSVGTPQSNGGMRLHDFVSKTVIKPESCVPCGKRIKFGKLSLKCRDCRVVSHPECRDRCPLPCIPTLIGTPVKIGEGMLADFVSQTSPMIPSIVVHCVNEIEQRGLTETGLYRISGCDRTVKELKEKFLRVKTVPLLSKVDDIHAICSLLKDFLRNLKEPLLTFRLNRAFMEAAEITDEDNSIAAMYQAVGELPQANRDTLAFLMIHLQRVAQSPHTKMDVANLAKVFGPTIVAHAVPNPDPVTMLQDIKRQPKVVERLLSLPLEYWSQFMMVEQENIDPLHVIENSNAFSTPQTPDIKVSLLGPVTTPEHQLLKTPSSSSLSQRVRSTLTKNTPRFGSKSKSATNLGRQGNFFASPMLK

Prothrombin = Prothrombin (Bos taurus, UniProt P00735); test: thrombin protease inhibitors – biochemical, fluorescence polarization, uHTS hits, dose response (AID 602369); type: functional
[8] = target: 72 kDa type IV collagenase (Homo sapiens, UniProt P08253); test: Dose Response validation of uHTS RPN11 inhibitor hits using a MMP-2 Fluorescence assay.; type: functional
[9] = target: T3, DNA repair protein RAD52 homolog (Homo sapiens, UniProt P43351); type: functional, biochemical
T3 sequence (P43351 whole entry): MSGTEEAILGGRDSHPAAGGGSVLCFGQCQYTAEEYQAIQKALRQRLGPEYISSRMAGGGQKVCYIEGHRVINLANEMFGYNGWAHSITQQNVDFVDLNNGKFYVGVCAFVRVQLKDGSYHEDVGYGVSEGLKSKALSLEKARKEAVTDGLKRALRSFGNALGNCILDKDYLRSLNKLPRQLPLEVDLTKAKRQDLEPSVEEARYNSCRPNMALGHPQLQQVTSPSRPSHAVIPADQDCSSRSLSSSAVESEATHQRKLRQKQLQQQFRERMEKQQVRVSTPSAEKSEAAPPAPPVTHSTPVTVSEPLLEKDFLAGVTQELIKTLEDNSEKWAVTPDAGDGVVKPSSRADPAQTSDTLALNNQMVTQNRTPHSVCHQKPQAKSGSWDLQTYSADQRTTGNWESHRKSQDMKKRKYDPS

[10] = viability loss in HeLa cells – cytotoxicity control for MgcRacGAP inhibitor project, dose response (AID 624300); type: functional
[11] = cAMP pathway inhibition in counterscreen cell line – TR-FRET cAMP detection, counter-screen for MC4R biased antagonist project, dose response (AID 602305); type: functional, cell-based;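 note: U2OS cells stimulated with forskolin near its EC80 as the cAMP inducer; potency is for inhibition of forskolin-stimulated cAMP signaling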
Melanocortin receptor 4 [12] = target: T1, Melanocortin receptor 4; type: functional, cell-based
[13] = target: T4, Sentrin-specific protease 6 (Homo sapiens, UniProt Q9GZR1); test: inhibition of human SENP6 catalytic domain – biochemical, luminescence, set 2, SAR follow-up (AID 588598); type: functional
T4 sequence (Q9GZR1 whole entry): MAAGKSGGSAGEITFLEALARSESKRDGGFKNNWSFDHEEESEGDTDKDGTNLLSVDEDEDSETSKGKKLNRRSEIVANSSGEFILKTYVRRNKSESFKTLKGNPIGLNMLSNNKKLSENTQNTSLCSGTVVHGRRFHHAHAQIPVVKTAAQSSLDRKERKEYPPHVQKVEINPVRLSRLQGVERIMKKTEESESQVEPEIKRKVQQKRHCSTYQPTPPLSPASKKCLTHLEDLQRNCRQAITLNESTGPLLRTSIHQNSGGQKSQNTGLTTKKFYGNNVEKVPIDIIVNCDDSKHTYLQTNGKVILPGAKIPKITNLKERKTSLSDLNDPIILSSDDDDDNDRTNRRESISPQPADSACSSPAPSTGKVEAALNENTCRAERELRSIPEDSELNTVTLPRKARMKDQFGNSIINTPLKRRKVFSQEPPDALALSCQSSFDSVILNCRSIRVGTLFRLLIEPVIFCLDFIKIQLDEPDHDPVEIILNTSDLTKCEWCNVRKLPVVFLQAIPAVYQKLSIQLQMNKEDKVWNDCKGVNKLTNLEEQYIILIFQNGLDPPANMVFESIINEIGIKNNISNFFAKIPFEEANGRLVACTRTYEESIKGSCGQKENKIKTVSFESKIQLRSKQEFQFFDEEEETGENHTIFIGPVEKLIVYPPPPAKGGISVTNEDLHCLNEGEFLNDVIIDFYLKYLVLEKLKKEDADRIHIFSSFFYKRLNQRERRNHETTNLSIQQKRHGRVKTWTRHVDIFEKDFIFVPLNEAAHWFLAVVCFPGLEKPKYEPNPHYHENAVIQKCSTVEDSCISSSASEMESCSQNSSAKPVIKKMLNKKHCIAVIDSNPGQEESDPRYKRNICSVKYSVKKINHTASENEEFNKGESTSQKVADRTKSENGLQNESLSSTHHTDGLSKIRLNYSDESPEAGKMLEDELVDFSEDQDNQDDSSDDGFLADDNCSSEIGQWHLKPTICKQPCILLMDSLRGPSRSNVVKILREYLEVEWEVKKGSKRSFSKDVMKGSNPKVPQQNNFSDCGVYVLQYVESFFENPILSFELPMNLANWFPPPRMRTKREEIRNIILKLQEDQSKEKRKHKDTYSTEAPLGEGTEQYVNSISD

[14] = target: T5, Sentrin-specific protease 7 (Homo sapiens, UniProt Q9BQF6); test: inhibition of human SENP7 cleavage activity – biochemical, luminescence, set 2, SAR follow-up (AID 588600); type: functional
T5 sequence (Q9BQF6 whole entry): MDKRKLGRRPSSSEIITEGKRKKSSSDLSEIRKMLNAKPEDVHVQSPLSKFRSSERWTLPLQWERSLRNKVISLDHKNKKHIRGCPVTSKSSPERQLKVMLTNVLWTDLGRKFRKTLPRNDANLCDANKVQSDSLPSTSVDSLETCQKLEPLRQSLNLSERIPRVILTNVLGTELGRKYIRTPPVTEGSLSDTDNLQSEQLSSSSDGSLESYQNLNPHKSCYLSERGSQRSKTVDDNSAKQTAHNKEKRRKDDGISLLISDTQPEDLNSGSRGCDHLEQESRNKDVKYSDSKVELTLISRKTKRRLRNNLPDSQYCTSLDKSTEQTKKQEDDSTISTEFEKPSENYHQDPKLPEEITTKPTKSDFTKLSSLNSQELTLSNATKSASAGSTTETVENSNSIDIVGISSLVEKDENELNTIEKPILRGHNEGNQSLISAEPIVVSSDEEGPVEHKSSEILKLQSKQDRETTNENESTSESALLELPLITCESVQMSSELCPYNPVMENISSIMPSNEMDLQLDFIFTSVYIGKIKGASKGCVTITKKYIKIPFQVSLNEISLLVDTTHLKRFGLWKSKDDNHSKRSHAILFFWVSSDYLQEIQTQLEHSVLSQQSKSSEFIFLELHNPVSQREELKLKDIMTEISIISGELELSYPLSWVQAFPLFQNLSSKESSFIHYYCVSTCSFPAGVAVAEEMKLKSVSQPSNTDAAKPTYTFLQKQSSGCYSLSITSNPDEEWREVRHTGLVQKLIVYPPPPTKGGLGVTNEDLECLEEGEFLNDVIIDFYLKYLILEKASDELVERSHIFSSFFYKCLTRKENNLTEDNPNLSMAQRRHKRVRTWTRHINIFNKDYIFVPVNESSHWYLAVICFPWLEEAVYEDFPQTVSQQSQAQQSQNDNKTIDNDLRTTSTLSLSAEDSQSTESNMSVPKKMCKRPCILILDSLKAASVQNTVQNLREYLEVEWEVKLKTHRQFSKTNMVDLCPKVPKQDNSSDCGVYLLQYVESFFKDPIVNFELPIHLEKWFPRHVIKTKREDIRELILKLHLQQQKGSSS

Caspase-3 = target: T6, Caspase-3 (Homo sapiens, UniProt P42574); test: inhibition of recombinant caspase-3 activity – biochemical, luminescence, set 2, selectivity assay for SENP protease inhibitor project, SAR follow-up (AID 588599); type: functional
T6 sequence (P42574 whole entry): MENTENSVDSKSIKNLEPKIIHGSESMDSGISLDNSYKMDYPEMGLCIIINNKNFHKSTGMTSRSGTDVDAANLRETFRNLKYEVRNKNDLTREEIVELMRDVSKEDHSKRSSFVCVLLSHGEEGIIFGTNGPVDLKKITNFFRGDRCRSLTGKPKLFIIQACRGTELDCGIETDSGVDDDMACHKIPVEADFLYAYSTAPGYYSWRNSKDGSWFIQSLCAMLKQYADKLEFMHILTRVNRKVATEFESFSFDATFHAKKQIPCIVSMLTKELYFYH

[15] = target: T7, Sentrin-specific protease 8 (Homo sapiens, UniProt Q96LD8); test: inhibition of sentrin protease 8 – biochemical, luminescence, set 2, SAR follow-up (AID 588601); type: functional
T7 sequence (Q96LD8 whole entry): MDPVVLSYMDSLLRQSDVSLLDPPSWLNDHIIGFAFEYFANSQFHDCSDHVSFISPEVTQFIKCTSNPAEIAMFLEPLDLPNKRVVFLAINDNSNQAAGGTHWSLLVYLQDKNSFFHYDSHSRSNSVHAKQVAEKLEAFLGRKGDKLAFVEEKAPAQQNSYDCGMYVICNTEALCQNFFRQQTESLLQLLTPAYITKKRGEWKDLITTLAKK

T1 sequence (P32245 whole entry): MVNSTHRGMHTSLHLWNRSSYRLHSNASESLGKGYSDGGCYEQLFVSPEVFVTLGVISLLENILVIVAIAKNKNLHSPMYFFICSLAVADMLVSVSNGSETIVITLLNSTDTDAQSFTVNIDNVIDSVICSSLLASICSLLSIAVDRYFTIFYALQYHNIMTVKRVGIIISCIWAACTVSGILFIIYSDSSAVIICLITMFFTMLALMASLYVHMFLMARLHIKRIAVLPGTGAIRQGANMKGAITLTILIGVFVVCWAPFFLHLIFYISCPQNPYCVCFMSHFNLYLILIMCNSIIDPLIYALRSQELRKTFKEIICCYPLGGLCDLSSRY
72 kDa type IV collagenase, sequence (P08253 whole entry): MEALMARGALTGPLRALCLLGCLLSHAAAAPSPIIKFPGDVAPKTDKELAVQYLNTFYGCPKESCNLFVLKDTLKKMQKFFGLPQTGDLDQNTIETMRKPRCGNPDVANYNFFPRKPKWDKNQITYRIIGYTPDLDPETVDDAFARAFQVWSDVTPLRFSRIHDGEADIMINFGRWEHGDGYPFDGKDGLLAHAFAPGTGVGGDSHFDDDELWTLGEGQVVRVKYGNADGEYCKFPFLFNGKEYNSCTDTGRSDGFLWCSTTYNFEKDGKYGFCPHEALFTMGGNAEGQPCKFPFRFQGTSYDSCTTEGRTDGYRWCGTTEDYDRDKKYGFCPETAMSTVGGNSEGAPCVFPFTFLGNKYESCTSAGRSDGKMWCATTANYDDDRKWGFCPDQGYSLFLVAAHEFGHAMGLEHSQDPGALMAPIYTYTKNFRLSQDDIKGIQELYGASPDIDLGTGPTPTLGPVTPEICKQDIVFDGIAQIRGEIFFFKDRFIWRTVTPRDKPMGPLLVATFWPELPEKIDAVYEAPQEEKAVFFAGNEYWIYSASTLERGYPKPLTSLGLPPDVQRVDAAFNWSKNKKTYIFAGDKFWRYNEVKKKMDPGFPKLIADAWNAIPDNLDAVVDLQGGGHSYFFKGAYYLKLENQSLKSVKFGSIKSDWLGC
26S proteasome non-ATPase regulatory subunit 14, sequence (O00487 whole entry): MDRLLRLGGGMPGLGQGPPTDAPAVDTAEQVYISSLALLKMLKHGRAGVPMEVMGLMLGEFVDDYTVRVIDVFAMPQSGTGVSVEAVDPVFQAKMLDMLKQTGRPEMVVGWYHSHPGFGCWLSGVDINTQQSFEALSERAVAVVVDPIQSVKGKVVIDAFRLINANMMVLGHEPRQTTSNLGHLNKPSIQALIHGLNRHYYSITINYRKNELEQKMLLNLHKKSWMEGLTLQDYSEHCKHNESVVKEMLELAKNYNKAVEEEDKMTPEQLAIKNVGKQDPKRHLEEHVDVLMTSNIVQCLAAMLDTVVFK
Luciferin 4-monooxygenase, sequence (P08659 whole entry): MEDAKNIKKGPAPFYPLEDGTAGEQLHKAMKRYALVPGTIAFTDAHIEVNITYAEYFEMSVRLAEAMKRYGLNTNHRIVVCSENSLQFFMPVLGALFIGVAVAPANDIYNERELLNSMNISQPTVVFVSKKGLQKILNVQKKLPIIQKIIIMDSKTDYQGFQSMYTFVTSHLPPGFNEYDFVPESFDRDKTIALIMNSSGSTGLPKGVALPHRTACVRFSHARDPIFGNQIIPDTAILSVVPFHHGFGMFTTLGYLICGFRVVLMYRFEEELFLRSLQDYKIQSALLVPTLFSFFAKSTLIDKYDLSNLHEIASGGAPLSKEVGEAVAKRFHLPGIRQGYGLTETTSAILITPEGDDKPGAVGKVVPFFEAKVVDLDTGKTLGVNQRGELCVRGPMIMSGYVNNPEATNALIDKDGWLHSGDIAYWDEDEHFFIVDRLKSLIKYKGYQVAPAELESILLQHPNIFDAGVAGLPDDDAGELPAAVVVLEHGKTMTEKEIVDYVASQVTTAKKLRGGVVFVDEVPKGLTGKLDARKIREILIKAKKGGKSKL

SMILES	IC50 (Melanocortin receptor 4 [5])	IC50 [11]	IC50 [13]	IC50 [14]	IC50 (Caspase-3)	IC50 [15]	other results
COC(=O)c1cc(S(=O)(=O)NCCc2ccc(SC)cc2)c[nH]1							EC50 [1]: > 112 µM (not active); EC50 [2]: > 112 µM (not active); AC50 [3]: 112 µM (active)
CCCCCCCCCCCCCCCC[N+](C)(C)Cc1ccc(F)cc1	13.7 µM (inactive)	59.8 µM (inactive)					IC50 [4]: 61.1 µM (active); AC50 [6]: 4.51 µM (active); IC50 [7]: 83.4 µM (active); IC50 (Prothrombin): 37.4 µM (active); IC50 [8]: 91.8 µM (active); AC50 [9]: 5.28 µM (active); CC50 [10]: 15.7 µM (active); EC50 (Melanocortin receptor 4 [12]): > 89.2 µM (inactive)
Cc1[nH]c2ccccc2c1C(=O)C(=O)NCCn1ccc2ccccc21			> 99 µM (inactive)	> 99 µM (inactive)	> 99 µM (inactive)	> 99 µM (inactive)	
COc1ccc(/C=C(/C#N)c2nc(-c3ccccc3C)no2)cc1O			> 99 µM (inactive)	> 99 µM (inactive)	> 99 µM (inactive)	> 99 µM (inactive)	
CCOC(=O)c1sc(NC(=O)CCN2CCN(CC)CC2)c(C(=O)OCC)c1C	> 64.6 µM (inactive)	> 64.6 µM (inactive)					
